Results taken from patent US20250367230A1, “Method for preparing SAMe microcapsules” (XIAMEN KINGDOMWAY BIOTECH. CO., LTD., priority 2024, published 2025).

Legend:
[1] = test system: mouse gastrointestinal tract; assay: Effect on mouse gastrointestinal tract (indomethacin/ethanol ulcer model, gastric mucosal lesion area); type: in vivo, mice (C57); conditions: mice, 5.0 g/kg·bw gavage once a day for 21 days, then indomethacin 10 mg/kg·bw i.p. and 60% ethanol gavage
Source text: Experimental animals: Healthy adult mice (C57, purchased from Pabeile Experimental Animal Breeding Co., Ltd.), with body weight of 18 to 22 g.
Experimental materials: The test samples were SAMe microcapsules obtained from the formulas in Examples 1 to 5 and Comparative Examples 1 to 9, and SAMe raw material.
Experimental method: The designed dose (5.0 g/kg·bw) was equivalent to 5 times the recommended dosage for humans, and an ulcer model control group was set. Each group was gavaged with the test sample once a day, and the control group was fed with an equal volume of distilled water. After 21 consecutive days of feeding, the animals were fasted for 1 day. 0.5 h after the last gavage, the mice of each group were intraperitoneally injected with indomethacin suspension (purchased from Liaoyang Helin Pharmaceutical Co., Ltd.) (10 mg/kg·bw), and 1 h later, the mice were gavaged with 60% ethanol ([…]). After 1 h, the mice were killed by cervical dislocation, laparotomy and ligation of pylorus were carried out, and 1 mL of 1% formalin was orally gavaged. The cardia was immediately ligated and the entire stomach was cut off. After flushing the stomach contents, the stomach was spread on a glass plate. Under a shadowless magnifying lamp, the area of gastric mucosal lesions was measured and statistically analyzed.

[2] = Determination of pH value of SAMe microcapsules; type: physicochemical; conditions: 1 g of sample added to 100 g of water
Procedure: 1 g of each of the above samples was taken and added to 100 g of water, and the pH value was measured.

For “S-Adenosyl-L-methionine Disulfate Tosylate [SAMe raw material]”, which “Lesion area (gastric mucosal lesions)” value [1] is on record?
The value was 11.57 ± 4.35 mm^2.

And the pH value [2]?
Its pH value is 1.3.
